Results reported in article PMC3253112, “Functional Evolution of Duplicated Odorant-Binding Protein Genes, Obp57d and Obp57e, in Drosophila” (PLoS ONE, 2012).
Substitutions are numbered along the chain they refer to.

Legend:
Assay in all cases: intrinsic tryptophan fluorescence quenching
Format in all cases: binding
Conditions in all cases: 20 mM sodium acetate pH 5.0, 25 °C, 1 µM OBP; Q = ligand concentration at which 3% of OBP is bound
[1] = target: T1, Dmel\OBP57e (Drosophila melanogaster, UniProt Q9V938)
T1 construct: mature protein, signal peptide removed, untagged; cloning primer encodes NTSVFNP
T1 sequence (Q9V938 21-136): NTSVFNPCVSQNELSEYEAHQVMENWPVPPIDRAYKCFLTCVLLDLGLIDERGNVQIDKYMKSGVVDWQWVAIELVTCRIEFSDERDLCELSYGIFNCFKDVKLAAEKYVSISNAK

[2] = target: T2, Dmel\OBP57d (Drosophila melanogaster, UniProt Q8MMF9, C33A)
T2 construct: mature protein, signal peptide removed, untagged, Met added; primer encodes N-terminus NDPCPHNQGID, C-terminus LTKS
T2 sequence (Q8MMF9 30-136 C33A): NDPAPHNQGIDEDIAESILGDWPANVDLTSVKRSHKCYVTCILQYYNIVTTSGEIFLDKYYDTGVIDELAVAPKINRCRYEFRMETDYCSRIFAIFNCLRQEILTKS

[3] = target: T3, Dmel\OBP57d (Drosophila melanogaster, UniProt Q8MMF9, D96A)
T3 construct: mature protein, signal peptide removed, untagged, Met added; primer encodes N-terminus NDPCPHNQGID, C-terminus LTKS
T3 sequence (Q8MMF9 30-136 D96A): T2 sequence (Q8MMF9 30-136 C33A) with A4C, D67A

[4] = target: T4, Dmel\OBP57d (Drosophila melanogaster, UniProt Q8MMF9, Y89A)
T4 construct: mature protein, signal peptide removed, untagged, Met added; primer encodes N-terminus NDPCPHNQGID, C-terminus LTKS
T4 sequence (Q8MMF9 30-136 Y89A): T2 sequence (Q8MMF9 30-136 C33A) with A4C, Y60A

[5] = target: T5, Dmel\OBP57d (Drosophila melanogaster, UniProt Q8MMF9)
T5 construct: mature protein, signal peptide removed, untagged, Met added; primer encodes N-terminus NDPCPHNQGID, C-terminus LTKS
T5 sequence (Q8MMF9 30-136): T2 sequence (Q8MMF9 30-136 C33A) with A4C

[6] = target: T6, Dmel\OBP57d (Drosophila melanogaster, UniProt Q8MMF9, DEL101-101)
T6 construct: mature protein, signal peptide removed, untagged, Met added; primer encodes N-terminus NDPCPHNQGID, C-terminus LTKS
T6 sequence (Q8MMF9 with tags, fused parts or gaps DEL101-101): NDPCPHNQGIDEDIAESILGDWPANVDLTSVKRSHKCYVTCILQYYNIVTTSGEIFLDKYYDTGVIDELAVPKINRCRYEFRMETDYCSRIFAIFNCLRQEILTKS

[7] = target: T7, Dmel\OBP57d (Drosophila melanogaster, UniProt Q8MMF9, L133A)
T7 construct: mature protein, signal peptide removed, untagged, Met added; primer encodes N-terminus NDPCPHNQGID, C-terminus LTKS
T7 sequence (Q8MMF9 30-136 L133A): T2 sequence (Q8MMF9 30-136 C33A) with A4C, L104A

[8] = target: T8, Dmel\OBP57d (Drosophila melanogaster, UniProt Q8MMF9, P52A)
T8 construct: mature protein, signal peptide removed, untagged, Met added; primer encodes N-terminus NDPCPHNQGID, C-terminus LTKS
T8 sequence (Q8MMF9 30-136 P52A): T2 sequence (Q8MMF9 30-136 C33A) with A4C, P23A

[9] = target: T9, Dpse\OBP57de (Drosophila pseudoobscura, UniProt A0A6I8UUP3)
T9 construct: gene LOC4804642; mature protein, signal peptide removed, untagged, Met added; primer encodes N-terminus HSNTAIFN
T9 sequence (A0A6I8UUP3 20-133): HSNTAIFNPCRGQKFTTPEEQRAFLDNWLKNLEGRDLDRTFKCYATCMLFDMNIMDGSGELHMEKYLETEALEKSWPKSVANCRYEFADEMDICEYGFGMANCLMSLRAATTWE

CCCCCCCCCC(=O)O [C10, decanoic acid]
Q (quenching value) [1]: particularly obvious in the affinity to C10–C13 fatty acids and 1-tridecanol

CCCCCCCCCCC(=O)O [C11, C11 fatty acid]
Q (quenching value) [1]: particularly obvious in the affinity to C10–C13 fatty acids and 1-tridecanol

CCCCCCCCCCCCC(=O)O [C13, tridecanoic acid]
Q (quenching value) [2]: none showed a complete loss of interaction with ligands | Q (quenching value) [3]: none showed a complete loss of interaction with ligands | Q (quenching value) [4]: none showed a complete loss of interaction with ligands | Q (quenching value) [5]: the strongest interaction was observed with the longer chain fatty acid (tridecanoic acid: C13) | Q (quenching value) [6]: none showed a complete loss of interaction with ligands | Q (quenching value) [7]: none showed a complete loss of interaction with ligands | Q (quenching value) [1]: Dmel\OBP57e also showed higher affinity than Dpse\OBP57de, not only to tridecanoic acid | Q (quenching value) [8]: none showed a complete loss of interaction with ligands

CCCCCCCCCCCC(=O)O [C12, C12 fatty acid]
Q (quenching value) [9]: The binding affinity of Dmel\OBP57e and Dpse\OBP57de to the same set of compounds was examined | Q (quenching value) [1]: particularly obvious in the affinity to C10–C13 fatty acids and 1-tridecanol
